Source: ChEMBL document CHEMBL1773064, “Engineered Thermoplasma acidophilum factor F3 mimics human aminopeptidase N (APN) as a target for anticancer drug development” (Bioorg Med Chem, 2011)
pIC50: −log10 of the molar value.

What was measured:
[1] = Solubility of compound; type: physicochemical
[2] = Inhibition of Thermoplasma acidophilum ATCC25905 recombinant Tricorn protease-interacting factor F3 E101Q, N261T mutant using Leu-p-nitroanilide as a substrate after 30 mins

solubility [1]: soluble
pIC50 [2]: 4.52
Compound: NC(Cc1ccccc1)C(=O)NC(CCCCNC(=O)OCc1ccccc1)C(=O)NO (configuration not stated)
